Target: T1, sigma-1 receptor (Cavia porcellus, UniProt Q60492)
T1 construct: from tissue; host or cells: guinea pig brain membranes
Assay: [3H](+)-pentazocine binding assay for the sigma-1 receptor in guinea pig brain membranes
Conditions: [3H](+)-pentazocine 0.5 nM; for Sigma-1 Inhibition percent (0.01 μM): compound 0.01 μM; for Sigma-1 Inhibition percent (0.1 μM): compound 0.1 μM
Protocol: Some of the compounds synthesized according to the procedures described above were tested for their activity as sigma-1 inhibitors. The following protocol was followed:
Brain membrane preparation and binding assays for the […] were performed as described (DeHaven-Hudkins et al., 1992) with some modifications. In brief, guinea pig brains were homogenized in 10 vols. (w/v) of Tris-HCl 50 mM 0.32 M sucrose, pH 7.4, with a Kinematica Polytron PT 3000 at 15000 r.p.m. for 30 s. The homogenate was centrifuged at 1000 g for 10 min at 4° C. and the supernatants collected and centrifuged again at 48000 g for 15 min at 4° C. The pellet was resuspended in 10 volumes of Tris-HCl buffer (50 mM, pH 7.4), incubated at 37° C. for 30 min, and centrifuged at 48000 g for 20 min at 4° C. Following this, the pellet was resuspended in fresh Tris-HCl buffer (50 mM, pH 7.4) and stored on ice until use.
Each assay tube contained 10 μL of [^3H](+)-pentazocine (final concentration of 0.5 nM), 900 μL of the tissue suspension to a final assay volume of 1 mL and a final tissue concentration of approximately 30 mg tissue net weight/mL. Non-specific binding was defined by addition of a final concentration of 1 μM haloperidol. All tubes were incubated at 37° C. for 150 min before termination of the reaction by rapid filtration over Schleicher & Schuell GF 3362 glass fibre filters [previously soaked in a solution of 0.5% polyethylenimine for at least 1 h]. Filters were then washed with four times with 4 mL of cold Tris-HCl buffer (50 mM, pH 7.4). Following addition of scintillation cocktail, the samples were allowed to equilibrate overnight. The amount of bound radioactivity was determined by liquid scintillation spectrometry using a Wallac Winspectral 1414 liquid scintillation counter. Protein concentrations were determined by the method of Lowry et al. (1951).

T1 sequence (Q60492 whole entry): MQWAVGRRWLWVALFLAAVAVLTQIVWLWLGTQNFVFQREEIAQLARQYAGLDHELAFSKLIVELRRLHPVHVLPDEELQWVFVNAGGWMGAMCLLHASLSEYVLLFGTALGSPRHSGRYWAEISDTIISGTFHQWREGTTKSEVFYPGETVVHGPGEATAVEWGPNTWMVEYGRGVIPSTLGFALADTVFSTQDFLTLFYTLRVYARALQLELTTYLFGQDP

SMILES | Sigma-1 Inhibition percent (0.01 μM) | Sigma-1 Inhibition percent (0.1 μM)
Clc1ccc(-c2nn(CCCN3CCCCCC3)nc2-c2ccccc2)cc1 [compound 6] | 36.5 | 52.5
Clc1ccc(-c2nn(CCCCN3CCCCC3)nc2-c2ccccc2)cc1 [compound 10] | 26.1 | 59.1
Cc1nn(CCCN2CCCCC2)nc1-c1ccccc1 [compound 19] | 31.2 | 78.5
c1ccc(-c2cnn(CCCN3CCCCC3)n2)cc1 [compound 20] | 43.6 | 82.2
Fc1cc(Br)ccc1-c1cnn(CCCN2CCCCC2)n1 [compound 21] | 25.8 | 83.4
